Measured values taken from ChEMBL document CHEMBL2434959, “Identification and characterization of novel indole based small molecules as anticancer agents through SIRT1 inhibition” (Eur J Med Chem, 2013).
Active and inactive are the calls of the source. The calls are words filed in the database; no cut-off is given here.

Legend:
[1] = Lipophilicity, log P of the compound; format: physicochemical; settings: octanol/water
K562 = experiment: Growth inhibition of human K562 cells at 10 uM after 24 hrs by MTT assay; format: functional; settings: K562, 24 h, read-out: GI
MDA-MB-231 = experiment: Growth inhibition of human MDA-MB-231 cells at 10 uM after 24 hrs by MTT assay; format: functional; settings: MDA-MB-231, 24 h, read-out: GI
LNCaP = experiment: Growth inhibition of human LNCAP cells at 10 uM after 24 hrs by MTT assay; format: functional; settings: read-out: GI
Rattus norvegicus [2] = experiment: Inhibition of testosterone propionate-induced prostate hyperplasia in Wistar rat assessed as seminal vesicle weight at 10 mg/kg, ip co-administered with testosterone propionate for 14 days (reference value: 1.6071 +/- 0.0821 g); format: functional, Prostate gland; settings: route intraperitoneal
Rattus norvegicus [3] = experiment: Inhibition of testosterone propionate-induced prostate hyperplasia in Wistar rat assessed as retention of normal cell morphology at 10 mg/kg, ip co-administered with testosterone propionate for 14 days by hematoxylin/eosin staining method; format: functional, organism-based; set-up: dose 10 mg/kg
Rattus norvegicus [4] = experiment: Inhibition of testosterone propionate-induced prostate hyperplasia in Wistar rat assessed as prostate weight at 10 mg/kg, ip co-administered with testosterone propionate for 14 days (reference value: 0.838 +/- 0.0293 g); format: functional, Prostate gland; settings: route intraperitoneal
Rattus norvegicus [5] = experiment: Inhibition of testosterone propionate-induced prostate hyperplasia in Wistar rat at 10 mg/kg, ip co-administered with testosterone propionate for 14 days; format: functional; settings: Prostate gland, 336 h, route intraperitoneal
Rattus norvegicus [6] = experiment: Inhibition of testosterone propionate-induced prostate hyperplasia in Wistar rat assessed as reduction in SIRT1 mRNA level in prostate tissue at 10 mg/kg, ip co-administered with testosterone propionate for 14 days by RT-PCR analysis; format: functional, organism-based; set-up: dose 10 mg/kg; settings: Prostate gland
Rattus norvegicus [7] = experiment: Inhibition of testosterone propionate-induced prostate hyperplasia in Wistar rat assessed as reduction in histoarchitecture disruption at 10 mg/kg, ip co-administered with testosterone propionate for 14 days by hematoxylin/eosin staining method; format: functional, organism-based; set-up: dose 10 mg/kg; settings: Prostate gland
[8] = target: T1, NAD-dependent protein deacetylase sirtuin-1 (Homo sapiens) (UniProt Q96EB6); experiment: Inhibition of recombinant human SIRT1 using AMC-Arg-His-Lys-Lys(Ac) as substrate at 40 uM after 45 mins by fluorimetric assay
T1 sequence (whole entry): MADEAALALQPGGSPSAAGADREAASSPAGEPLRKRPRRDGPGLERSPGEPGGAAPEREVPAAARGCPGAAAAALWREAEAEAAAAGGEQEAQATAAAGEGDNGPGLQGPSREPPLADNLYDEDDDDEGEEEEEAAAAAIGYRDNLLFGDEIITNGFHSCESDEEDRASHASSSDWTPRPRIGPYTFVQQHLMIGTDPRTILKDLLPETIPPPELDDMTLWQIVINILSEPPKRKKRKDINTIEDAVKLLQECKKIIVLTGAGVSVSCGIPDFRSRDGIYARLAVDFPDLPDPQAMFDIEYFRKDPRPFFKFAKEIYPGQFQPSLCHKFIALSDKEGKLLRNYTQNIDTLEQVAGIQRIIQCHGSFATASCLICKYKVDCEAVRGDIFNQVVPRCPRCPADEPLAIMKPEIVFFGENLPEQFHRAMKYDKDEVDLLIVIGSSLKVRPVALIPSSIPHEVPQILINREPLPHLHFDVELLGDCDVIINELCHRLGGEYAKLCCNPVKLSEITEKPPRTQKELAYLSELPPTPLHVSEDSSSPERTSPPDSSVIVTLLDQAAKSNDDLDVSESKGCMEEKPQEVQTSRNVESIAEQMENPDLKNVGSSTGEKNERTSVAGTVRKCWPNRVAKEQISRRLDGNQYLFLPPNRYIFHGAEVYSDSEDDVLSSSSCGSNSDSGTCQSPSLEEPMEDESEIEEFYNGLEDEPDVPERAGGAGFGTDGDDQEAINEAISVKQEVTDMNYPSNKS

Rattus norvegicus [9] = experiment: Inhibition of testosterone propionate-induced prostate hyperplasia in Wistar rat assessed as ratio of prostate weight to body weight at 10 mg/kg, ip co-administered with testosterone propionate for 14 days (reference value: 3.1634 +/- 0.1264 no unit); format: functional, Prostate gland; settings: route intraperitoneal
Rattus norvegicus [10] = experiment: Inhibition of testosterone propionate-induced prostate hyperplasia in Wistar rat assessed as ratio of prostate weight to body weight at 5 mg/kg, ip co-administered with testosterone propionate for 14 days (reference value: 3.1634 +/- 0.1264 no unit); format: functional, Prostate gland; settings: route intraperitoneal
Rattus norvegicus [11] = experiment: Inhibition of testosterone propionate-induced prostate hyperplasia in Wistar rat assessed as prostate weight at 5 mg/kg, ip co-administered with testosterone propionate for 14 days (reference value: 0.838 +/- 0.0293 g); format: functional, Prostate gland; settings: route intraperitoneal
Rattus norvegicus [12] = experiment: Inhibition of testosterone propionate-induced prostate hyperplasia in Wistar rat assessed as seminal vesicle weight at 5 mg/kg, ip co-administered with testosterone propionate for 14 days (reference value: 1.6071 +/- 0.0821 g); format: functional, Prostate gland; settings: route intraperitoneal
Rattus norvegicus [13] = experiment: Inhibition of testosterone propionate-induced prostate hyperplasia in Wistar rat assessed as retention of normal cell morphology at 5 mg/kg, ip co-administered with testosterone propionate for 14 days by hematoxylin/eosin staining method; format: functional, organism-based; set-up: dose 5 mg/kg
Rattus norvegicus [14] = experiment: Inhibition of testosterone propionate-induced prostate hyperplasia in Wistar rat assessed as reduction in histoarchitecture disruption at 5 mg/kg, ip co-administered with testosterone propionate for 14 days by hematoxylin/eosin staining method; format: functional, organism-based; set-up: dose 5 mg/kg; settings: Prostate gland

SMILES | logP [1] | inhibition of growth at 10 µM (MDA-MB-231) | other results
CC(C)Sc1nnc(-c2c(CNCCCN3CCOCC3)c3ccccc3n2C)n1-c1ccccc1 | 4.22 | – | –
COc1cccc(CNCc2c(-c3nnc(SC(C)C)n3-c3ccccc3)n(C)c3ccccc23)c1 | 6.27 | > 50% | –
CC1CN(Cc2c(-c3nnc(SC(C)C)n3-c3ccccc3)n(C)c3ccccc23)CC(C)O1 (stereo not given) | 5.13 | – | –
CC(C)Sc1nnc(-c2c(CNCCN3CCCC3)c3ccccc3n2C)n1-c1ccccc1 | 4.83 | – | –
CC(C)Sc1nnc(-c2c(CN3CCOCC3)c3ccccc3n2C)n1-c1ccccc1 | 4.5 | – | –
CC(C)Sc1nnc(-c2c(CNc3cnccn3)c3ccccc3n2C)n1-c1ccccc1 | 4.22 | – | –
COc1ccc(CNCc2c(-c3nnc(SC(C)C)n3-c3ccccc3)n(C)c3ccccc23)cc1 | 6.27 | > 50% | –
CC(C)Sc1nnc(-c2c(CN3CCCCC3C)c3ccccc3n2C)n1-c1ccccc1 (stereo not given) | 5.95 | – | –
COc1cc(NCc2c(-c3nnc(SC(C)C)n3-c3ccccc3)n(C)c3ccc(F)cc23)cc(OC)c1OC | 5.96 | – | inhibition of growth at 10 µM (K562): > 50%
CC(C)Sc1nnc(-c2c(CN3CCC(N4CCCC4)CC3)c3ccccc3n2C)n1-c1ccccc1 | 5.16 | – | –
CC(C)Sc1nnc(-c2c(CNc3nc4ccccc4[nH]3)c3ccccc3n2C)n1-c1ccccc1 | 5.94 | – | –
CC(C)(C)NC(=O)[C@H]1CC[C@H]2[C@@H]3CC[C@H]4NC(=O)C=C[C@]4(C)[C@H]3CC[C@]12C [FINASTERIDE] | – | – | Ratio (Rattus norvegicus [10]): 0.002471; Activity (Rattus norvegicus [11]): 0.556 g; Activity (Rattus norvegicus [12]): 0.9051 g; inhibition (Rattus norvegicus [13]): Active; inhibition (Rattus norvegicus [14]): Active
CC1CCN(Cc2c(-c3nnc(SC(C)C)n3-c3ccccc3)n(C)c3ccccc23)CC1 | 5.96 | – | inhibition of growth at 10 µM (K562): 88%
CC(C)Sc1nnc(-c2c(CNCCN3CCOCC3)c3ccccc3n2C)n1-c1ccccc1 | 4.12 | – | –
COc1cc(NCc2c(-c3nnc(SC(C)C)n3-c3ccccc3)n(C)c3ccccc23)cc(OC)c1OC | 5.8 | – | –
CC1CCCN(Cc2c(-c3nnc(SC(C)C)n3-c3ccccc3)n(C)c3ccccc23)C1 (stereo not given) | 6.03 | > 50% | –

Now from value to compound, other results behind:

logP [1] | SMILES | inhibition of growth at 10 µM (MDA-MB-231) | other results
4.99 | CC(C)Sc1nnc(-c2c(CNCCN3CCCC3)c3cc(F)ccc3n2C)n1-c1ccccc1 | – | –
5.24 | CC(C)Sc1nnc(-c2c(CNCC3CC3)c3ccccc3n2C)n1-c1ccccc1 | – | inhibition of growth at 10 µM (K562): > 50%
4.52 | COCCNCc1c(-c2nnc(SC(C)C)n2-c2ccccc2)n(C)c2ccc(F)cc12 | – | inhibition of growth at 10 µM (LNCaP): > 50%
6.42 | COc1ccc(CNCc2c(-c3nnc(SC(C)C)n3-c3ccccc3)n(C)c3ccc(F)cc23)cc1 | > 50% | Activity (Rattus norvegicus [2]): 0.619 g; inhibition (Rattus norvegicus [3]): Active; Activity (Rattus norvegicus [4]): 0.537 g; inhibition in vivo at 10 mg/kg (Rattus norvegicus [5]): 70.5%; inhibition of growth at 10 µM (LNCaP): > 50%; inhibition (Rattus norvegicus [6]): Active; inhibition (Rattus norvegicus [7]): Active; inhibition [8]: 70%; Ratio (Rattus norvegicus [9]): 0.002298
6.18 | CC1CCCN(Cc2c(-c3nnc(SC(C)C)n3-c3ccccc3)n(C)c3ccc(F)cc23)C1 (stereo not given) | > 50% | –
6.42 | COc1cccc(CNCc2c(-c3nnc(SC(C)C)n3-c3ccccc3)n(C)c3ccc(F)cc23)c1 | > 50% | –
4.28 | CC(C)Sc1nnc(-c2c(CNCCN3CCOCC3)c3cc(F)ccc3n2C)n1-c1ccccc1 | – | –
4.38 | CC(C)Sc1nnc(-c2c(CNCCCN3CCOCC3)c3cc(F)ccc3n2C)n1-c1ccccc1 | – | –
4.65 | CC(C)Sc1nnc(-c2c(CN3CCOCC3)c3cc(F)ccc3n2C)n1-c1ccccc1 | – | inhibition of growth at 10 µM (K562): 88%
4.36 | COCCNCc1c(-c2nnc(SC(C)C)n2-c2ccccc2)n(C)c2ccccc12 | – | –
4.97 | CC(C)Sc1nnc(-c2c(CNC3CC3)c3cc(F)ccc3n2C)n1-c1ccccc1 | > 50% | inhibition of growth at 10 µM (K562): > 50%
6.12 | CC1CCN(Cc2c(-c3nnc(SC(C)C)n3-c3ccccc3)n(C)c3ccc(F)cc23)CC1 | > 50% | inhibition of growth at 10 µM (LNCaP): > 50%
5.4 | CC(C)Sc1nnc(-c2c(CNCC3CC3)c3cc(F)ccc3n2C)n1-c1ccccc1 | > 50% | inhibition of growth at 10 µM (K562): > 50%
4.81 | CC(C)Sc1nnc(-c2c(CNC3CC3)c3ccccc3n2C)n1-c1ccccc1 | – | –
